Drawing on patent publication US10280159B2 (AbbVie Deutschland GmbH & Co. KG, priority 2015, dated 2019), this text covers EC50 for 28 compounds.

Some results are limits rather than exact numbers.

What all share (format): cell-based
One experiment addresses T1, human S1PR1 (Homo sapiens, UniProt P21453).
T1 construct: host or cells: CHO-K1
Put plainly: Intracellular Ca2+ release (FLIPR) agonist potency, S1P1. To be noted: recombinant CHO-K1 cells expressing human S1PR1, aequorin, Gq/i5; Calcium 5 FLIPR; read-out: S1P1 EC50. Here is the method:
(§1) Agonistic activity was measured using the method described below.
(§2) Intracellular Ca^2+ Release
(§3) Agonist potency and intrinsic activity was assessed by measurement of intracellular Ca^2+ release. Recombinant CHO-K1 cells (Euroscreen, Brussels, Belgium) expressing human S1PR5, S1PR1, S1PR3 or S1PR4 receptors, aequorin, and GTP binding protein Gq/i5 were cultured using a medium containing nutrient mixture F-12 Ham (Sigma-Aldrich) with 10% FBS, and 100 μg/mL gentamicin and equilibrated at 5% CO2.
(§4) Phospho-fingolimod was used as positive control. Antagonists were pre-incubated for 10 min with cells before addition of the agonist (phospho-fingolimod at EC80). Measurements were performed using a fluorometric imaging plate reader FLIPR®tetra (Molecular Devices). Agonist at the human S1P receptors were characterized by deducing EC50 (potency) values from a nonlinear fit to the measured fluorescence raw data after normalization to the reference agonist (phospho-fingolimod) curve.

For a further experiment, the target named is T2, human S1PR4 (Homo sapiens, UniProt O95977).
T2 construct: host or cells: CHO-K1
T2 sequence (O95977 1-384): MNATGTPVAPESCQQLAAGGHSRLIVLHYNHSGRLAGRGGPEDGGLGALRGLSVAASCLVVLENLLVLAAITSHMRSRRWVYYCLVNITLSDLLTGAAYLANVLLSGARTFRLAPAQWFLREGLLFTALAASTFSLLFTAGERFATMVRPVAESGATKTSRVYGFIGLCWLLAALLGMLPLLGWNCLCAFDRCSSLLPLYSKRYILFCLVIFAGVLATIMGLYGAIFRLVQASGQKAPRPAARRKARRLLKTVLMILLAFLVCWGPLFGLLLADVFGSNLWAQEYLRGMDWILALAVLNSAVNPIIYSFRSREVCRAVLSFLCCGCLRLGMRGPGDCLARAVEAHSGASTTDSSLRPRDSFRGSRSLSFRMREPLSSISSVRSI
Put plainly: Intracellular Ca2+ release (FLIPR) agonist potency, S1P4. The note with it: recombinant CHO-K1 cells expressing human S1PR4, aequorin, Gq/i5; Calcium 5 FLIPR; read-out: S1P4 EC50. The protocol:
as §1, §2, §3, §4

In another experiment the target is T3, human S1PR5 (Homo sapiens, UniProt Q9H228).
T3 construct: host or cells: CHO-K1
Description: Intracellular Ca2+ release (FLIPR) agonist potency, S1P5. The note with it: recombinant CHO-K1 cells expressing human S1PR5, aequorin, Gq/i5; Calcium 5 FLIPR; read-out: S1P5 EC50 range. Here is the method:
as §1, §2, §3, §4

T3 sequence (Q9H228 whole entry): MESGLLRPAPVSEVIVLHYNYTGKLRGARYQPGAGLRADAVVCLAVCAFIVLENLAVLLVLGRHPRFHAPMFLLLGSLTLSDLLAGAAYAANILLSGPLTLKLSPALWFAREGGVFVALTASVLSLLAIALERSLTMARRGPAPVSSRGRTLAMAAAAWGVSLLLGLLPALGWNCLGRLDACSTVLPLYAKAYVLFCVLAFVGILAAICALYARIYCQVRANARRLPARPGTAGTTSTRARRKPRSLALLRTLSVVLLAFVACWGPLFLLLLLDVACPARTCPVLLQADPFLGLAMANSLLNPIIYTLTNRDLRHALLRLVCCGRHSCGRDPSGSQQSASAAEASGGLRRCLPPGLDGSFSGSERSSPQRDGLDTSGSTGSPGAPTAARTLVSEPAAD
T1 sequence (P21453 whole entry): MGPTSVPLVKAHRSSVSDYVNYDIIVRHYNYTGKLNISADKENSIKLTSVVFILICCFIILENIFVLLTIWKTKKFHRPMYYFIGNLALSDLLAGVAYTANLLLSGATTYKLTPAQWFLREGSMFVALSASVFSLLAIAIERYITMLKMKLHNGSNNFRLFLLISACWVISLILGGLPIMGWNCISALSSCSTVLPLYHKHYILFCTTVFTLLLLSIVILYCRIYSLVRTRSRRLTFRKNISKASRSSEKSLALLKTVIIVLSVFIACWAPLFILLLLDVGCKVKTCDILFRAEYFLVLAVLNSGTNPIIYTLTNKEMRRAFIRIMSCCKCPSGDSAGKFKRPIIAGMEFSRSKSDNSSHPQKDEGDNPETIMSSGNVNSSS

As a reminder, the EC50 is the concentration at which the effect is half-maximal. Consider `O=C(O)C1CN(C2COc3cc(OCc4c(Cl)cccc4Cl)ccc3C2)C1` (single isomer, unassigned) [Compound 144, 1-(7-((2,6-dichlorobenzyl)oxy)chroman-3-yl)azetidine-3-carboxylic acid], for which the values for the EC50 at human S1PR1, on human S1PR4 and at human S1PR5 were above 1 µM, above 1 µM and 0.01 to 0.1 µM, respectively.

Consider `O=C(O)C1CN(C2COc3cc(OCc4c(Cl)cccc4Cl)ccc3C2)C1` (single isomer, unassigned) [Compound 145, 1-(7-((2,6-dichlorobenzyl)oxy)chroman-3-yl)azetidine-3-carboxylic acid], for which the EC50 at human S1PR1 is above 1 µM; at human S1PR4, above 1 µM; on human S1PR5, 0.1 to 1 µM.

Consider `CCc1cccc(F)c1COc1ccc2c(c1)OCC(N1CC(C(=O)O)C1)C2` (single isomer, unassigned) [Compound 146, 1-(7-((2-ethyl-6-fluorobenzyl)oxy)chroman-3-yl)azetidine-3-carboxylic acid], for which the EC50 on human S1PR1 was above 1 µM; at human S1PR4 it was below 1 µM; at human S1PR5 it was below 0.01 µM.

On to `CCc1cccc(F)c1COc1ccc2c(c1)OCC(N1CC(C(=O)O)C1)C2` (single isomer, unassigned) [Compound 147, 1-(7-((2-ethyl-6-fluorobenzyl)oxy)chroman-3-yl)azetidine-3-carboxylic acid], for which the EC50 was above 1 µM on human S1PR1, below 1 µM at human S1PR4 and below 0.01 µM at human S1PR5.

In the case of `CCc1cccc(Cl)c1COc1ccc2c(c1)CCC(OCC(=O)O)C2` (single isomer, unassigned) [Compound 239], the EC50 is above 1 µM at human S1PR1, above 1 µM at human S1PR4 and 0.1 to 1 µM on human S1PR5.

For `CCc1cccc(Cl)c1COc1ccc2c(c1)CCC(OCC(=O)O)C2` (single isomer, unassigned) [Compound 240], the EC50 on human S1PR1 is above 1 µM; on human S1PR4, above 1 µM; on human S1PR5, 0.01 to 0.1 µM.

Turning to `O=C(O)C1CN(C2COc3cc(OCc4ccccc4F)ccc3C2)C1` (centres unmarked) [Compound 3, 1-(7-((2-fluorobenzyl)oxy)chroman-3-yl)azetidine-3-carboxylic acid], the values for the EC50 on human S1PR1, on human S1PR4 and at human S1PR5 were above 1 µM, above 1 µM and 1 to 10 µM, respectively.

`O=C(O)C1CN(C2COc3cc(C#Cc4cccc(F)c4F)ccc3C2)C1` (centres unmarked) [Compound 26, 1-(7-((2,3-difluorophenyl)ethynyl)chroman-3-yl)azetidine-3-carboxylic acid]: the concentration for a half-maximal effect (EC50) at human S1PR1 is above 1 µM; on human S1PR4, above 1 µM; on human S1PR5, 0.01 to 0.1 µM.

For the compound `O=C(O)C12CC1CCN2C1CCc2cc(OCc3c(Cl)cccc3Cl)ccc2C1` (centres unmarked) [Compound 36, 2-(6-((2,6-dichlorobenzyl)oxy)-1,2,3,4-tetrahydronaphthalen-2-yl)-2-azabicyclo[3.1.0]hexane-1-carboxylic acid], the EC50 was above 1 µM on human S1PR1, above 1 µM at human S1PR4 and 0.1 to 1 µM at human S1PR5.

Regarding `CC(C)C(NC1CCc2cc(OCc3c(Cl)cccc3Cl)ccc2C1)C(=O)O` (centres unmarked) [Compound 37, 2-((6-((2,6-dichlorobenzyl)oxy)-1,2,3,4-tetrahydronaphthalen-2-yl)amino)-3-methylbutanoic acid], the EC50 at human S1PR1 is above 1 µM; at human S1PR4 it was above 1 µM; on human S1PR5, 0.1 to 1 µM.

For the compound `O=C(O)C1CN(C2COc3cc(C#CC4CCCCC4)ccc3C2)C1` (centres unmarked) [Compound 39, 1-(7-(cyclohexylethynyl)chroman-3-yl)azetidine-3-carboxylic acid], the EC50 on human S1PR1 is above 1 µM; on human S1PR4, above 1 µM; on human S1PR5, 0.1 to 1 µM.

For `Cc1cccc(C#Cc2ccc3c(c2)OCC(N2CC(C(=O)O)C2)C3)c1` (centres unmarked) [Compound 43, 1-(7-((3-(methyl)phenyl)ethynyl)chroman-3-yl)azetidine-3-carboxylic acid], the EC50 at human S1PR1 is above 1 µM; at human S1PR4, below 1 µM; at human S1PR5 it was 0.1 to 1 µM.

On to `CCOc1ccc(C#Cc2ccc3c(c2)OCC(N2CC(C(=O)O)C2)C3)cc1` (centres unmarked) [Compound 45, 1-(7-((4-ethoxyphenyl)ethynyl)chroman-3-yl)azetidine-3-carboxylic acid], for which the EC50 on human S1PR1 was below 1 µM; on human S1PR4, above 1 µM; on human S1PR5, 0.1 to 1 µM.

In the case of `O=C(O)C1CN(C2COc3cc(OCc4ccc(Cl)cc4)ccc3C2)C1` (centres unmarked) [Compound 46, 1-(7-((4-chlorobenzyl)oxy)chroman-3-yl)azetidine-3-carboxylic acid], the EC50 is above 1 µM at human S1PR1, above 1 µM at human S1PR4 and 1 to 10 µM on human S1PR5.

Turning to `O=C(O)C1(CNC2COc3cc(OCc4c(Cl)cccc4Cl)ccc3C2)CC1` (centres unmarked) [Compound 49, 1-(((7-((2,6-dichlorobenzyl)oxy)chroman-3-yl)amino)methyl)cyclopropanecarboxylic acid], the EC50 on human S1PR1 is above 1 µM; at human S1PR4 it was below 1 µM; on human S1PR5, 0.1 to 1 µM.

As to `O=C(O)C1CN(C2COc3cc(OCc4cccc(F)c4F)ccc3C2)C1` (centres unmarked) [Compound 51, 1-(7-((2,3-difluorobenzyl)oxy)chroman-3-yl)azetidine-3-carboxylic acid], the half-maximal effective concentration (EC50) on human S1PR1 and on human S1PR4 was above 1 µM throughout.

For the compound `O=C(O)C1CN(C2COc3cc(OCc4cc(Cl)ccc4Cl)ccc3C2)C1` (centres unmarked) [Compound 52, 1-(7-((2,5-dichlorobenzyl)oxy)chroman-3-yl)azetidine-3-carboxylic acid], the EC50 at human S1PR1 is above 1 µM; at human S1PR4 it was above 1 µM; at human S1PR5, 1 to 10 µM.

Take `Cc1cccc(F)c1COc1ccc2c(c1)OCC(N1CC(C(=O)O)C1)C2` (centres unmarked) [Compound 53, 1-(7-((2-fluoro-6-methylbenzyl)oxy)chroman-3-yl)azetidine-3-carboxylic acid]: the EC50 was above 1 µM at human S1PR1, above 1 µM on human S1PR4 and 0.1 to 1 µM on human S1PR5.

Consider `O=C(O)C1CN(C2COc3cc(OCc4ccc(C(F)(F)F)cc4)ccc3C2)C1` (centres unmarked) [Compound 57, 1-(7-((4-(trifluoromethyl)benzyl)oxy)chroman-3-yl)azetidine-3-carboxylic acid], for which the EC50 was above 1 µM on human S1PR1, above 1 µM on human S1PR4 and 1 to 10 µM at human S1PR5.

As for `Cc1cccc(COc2ccc3c(c2)OCC(N2CC(C(=O)O)C2)C3)c1` (centres unmarked) [Compound 58, 1-(7-((3-methylbenzyl)oxy)chroman-3-yl)azetidine-3-carboxylic acid], the EC50 at human S1PR1 is above 1 µM; on human S1PR4 it was above 1 µM; on human S1PR5, 1 to 10 µM.

Turning to `O=C(O)C1CN(C2COc3cc(OCc4c(F)cccc4F)ccc3C2)C1` (centres unmarked) [Compound 60, 1-(7-((2,6-difluorobenzyl)oxy)chroman-3-yl)azetidine-3-carboxylic acid], the EC50 at human S1PR1 and at human S1PR4 was above 1 µM in each case.

For the compound `O=C(O)COC1CCc2cc(OCc3cc(Cl)ccc3C(F)(F)F)ccc2C1` (centres unmarked) [Compound 153, 2-[6-[[5-chloro-2-(trifluoromethyl)phenyl]methoxy]tetralin-2-yl]oxyacetic acid], at human S1PR1, the EC50 was above 1 µM.

As to `O=C(O)CCOC1CCc2cc(OCc3ccccc3C(F)(F)F)ccc2C1` (centres unmarked) [Compound 178, 3-[6-[[2-(trifluoromethyl)phenyl]methoxy]tetralin-2-yl]oxypropanoic acid], the concentration for a half-maximal effect (EC50) on human S1PR1 was above 1 µM; on human S1PR5, 1 to 10 µM.

On to `O=C(O)CCOC1CCc2cc(OCc3cccc(Cl)c3)ccc2C1` (centres unmarked) [Compound 187, 3-[6-[(3-chlorophenyl)methoxy]tetralin-2-yl]oxypropanoic acid], for which the EC50 at human S1PR1 and on human S1PR4 was above 1 µM throughout.

For the compound `O=C(O)CCOC1CCc2cc(OCc3cccc(C(F)(F)F)c3)ccc2C1` (centres unmarked) [Compound 193, 3-[6-[[3-(trifluoromethyl)phenyl]methoxy]tetralin-2-yl]oxypropanoic acid], the values for the EC50 at human S1PR1 and on human S1PR4 were above 1 µM and below 1 µM, respectively.

`Cc1ccccc1COc1ccc2c(c1)CCC(OCC(=O)O)C2` (centres unmarked) [Compound 197, 2-[6-(o-tolylmethoxy)tetralin-2-yl]oxyacetic acid]: the figures for the EC50 on human S1PR1 and at human S1PR4 were above 1 µM and below 1 µM, respectively.

For the compound `O=C(O)COC1CCc2cc(OCc3ccc(C(F)(F)F)cc3)ccc2C1` (centres unmarked) [Compound 202, 2-[6-[[4-(trifluoromethyl)phenyl]methoxy]tetralin-2-yl]oxyacetic acid], the EC50 at human S1PR1 and on human S1PR4 was above 1 µM each time.

On to `O=C(O)COC1CCc2cc(OCc3ccccc3F)ccc2C1` (centres unmarked) [Compound 215, 2-[6-[(2-fluorophenyl)methoxy]tetralin-2-yl]oxyacetic acid], for which the EC50 was above 1 µM at human S1PR1 and 1 to 10 µM on human S1PR5.
